# According to PubChem BioAssay AID1963960 (Molecular Pharmacology Branch, DTP, NCI, 2024):
# Tested on: MDA-MB-468 spheroids with HUVEC/MSC, viability
# Test: Anticancer human tumor MDA-MB-468 cell line growth inhibition [PI3K];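 also: spheroids exposed to agents for seven days before readout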;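 as to viability, T/C: 100% = DMSO vehicle control viability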
# Settings: for IC50: curve of first compound; for viability, T/C: stronger effect = lower value
# Text: Combinatorial screen of targeted agents with the PI3K inhibitors inavolisib, alpelisib, duvelisib, and copanlisib in multi-cell type tumor spheroids
# A high-throughput screen of multi-cell type tumor spheroids was designed to identify active combinations of targeted small molecules and PI3K pathway inhibitors. Complex spheroids include a stromal component modeled by human endothelial cells (HUVEC) and fibroblasts modeled by human mesenchymal stem cells (MSCs). The concentration ranges selected for each drug and investigational agent were based upon clinically achievable concentrations if the clinical Cmax of the agent was known.
# Compounds. The drugs and investigational agents: inavolisib (NSC800729), alpelisib (NSC765974), duvelisib (NSC772469), copanlisib (NSC816437), ipatasertib (NSC767898), afuresertib (NSC778305), talazoparib (NSC767125), sapanisertib (NSC764658), selumetinib (NSC741078), tovorafenib (DAY101, NSC766906), vemurafenib (NSC761431), ravoxertinib (NSC781343), sotorasib (NSC818433), MRTX1133 (NSC 836407), abemaciclib (NSC 768073), palbociclib (NSC758247), venetoclax (NSC 766270), SY5609 (NSC837396), enzalutamide (NSC755605), and darolutamide (NSC825331), were obtained from the National Cancer Institute (NCI) Developmental Therapeutics Program Chemical Repository. The FDA-approved anticancer drug set is available from the NCI Developmental Therapeutics Program. […] The stock solutions were prepared in dimethyl sulfoxide (DMSO, Sigma-Aldrich, St. Louis, MO, cat. D2650) at 800-fold the tested concentration and stored at -70 degrees C prior to their use. All drugs and investigational agents were tested over a range starting from a high concentration at or near the clinical Cmax and decreasing in half-log increments. If the clinical Cmax for an agent had not been determined, the highest concentration tested was 10 microM.
# Cell Culture. All cells were maintained in an incubator at 37 degrees C and 5% CO2 with 95% humidity. The PDC lines were cultured according to standard operating procedures established by the NCI PDMR (https://pdmr.cancer.gov/sops/default.htm). All PDCs were thawed and cultured in Matrigel-coated flasks prepared with a working solution of 1X Ham's F-12 nutrient mix, without supplementation (Invitrogen, Waltham, MA, cat. 11765054), 100 U/mL penicillin-streptomycin (Invitrogen, cat. 15140122), and 2.5% Matrigel (Corning Inc., Corning, NY, cat. 354248) for the first three passages. The 354836-022-R-J1-PDC, 475296-252-R-J1-PDC, and 997726-040-R-J2-PDC lines were cultured in 6A media, which includes advanced DMEM/F-12 (Thermo Fisher Scientific, cat. 12634028), 10 mM HEPES (Thermo Fisher Scientific, cat. 15630080), 1X GlutaMAX supplement (Thermo Fisher Scientific, cat. 35050061), 0.1 mg/mL primocin (InvivoGen, San Diego, CA, cat. ant-pm-2), 10% defined fetal bovine serum, heat inactivated (HyClone Laboratories Inc., Logan, UT, cat. SH30070.03HI), 50% L-WRN conditioned media (ATCC, cat. CRL-3276), 1.25 mM N-Acetyl-L-cysteine (Sigma-Aldrich, cat. A9165), 10 mM nicotinamide (Sigma-Aldrich, cat. N0636), 1X B-27 supplement (Thermo Fisher Scientific, cat. 17504044), 1X N-2 supplement (Thermo Fisher Scientific, cat. 17502048), and 10 microM Y-27632 dihydrochloride (Tocris Bioscience, Bristol, United Kingdom, cat. 1254). The 624824-186-R-J2-PDC line was cultured in 6C/Colon 1B media, which includes all 6A media components plus 50 ng/mL human EGF recombinant protein (Thermo Fisher Scientific, cat. PHG0311). […]
# [1] = second compound 0.00316 µM, first compound 0.0316 µM
# [2] = second compound 0.00316 µM, first compound 0.1 µM
# [3] = second compound 0.00316 µM, first compound 0.316 µM
# [4] = second compound 0.00316 µM, first compound 1 µM
# [5] = second compound 0.01 µM, first compound 0.0316 µM
# [6] = second compound 0.01 µM, first compound 0.1 µM
# [7] = second compound 0.01 µM, first compound 0.316 µM
# [8] = second compound 0.01 µM, first compound 1 µM
# [9] = second compound 0.0316 µM, first compound 0.0316 µM
# [10] = second compound 0.0316 µM, first compound 0.1 µM
# [11] = second compound 0.0316 µM, first compound 0.316 µM
# [12] = second compound 0.0316 µM, first compound 1 µM
# [13] = second compound 0.1 µM, first compound 0.0316 µM
# [14] = second compound 0.1 µM, first compound 0.1 µM
# [15] = second compound 0.1 µM, first compound 0.316 µM
# [16] = second compound 0.1 µM, first compound 1 µM
# [17] = second compound 0.316 µM, first compound 0.0316 µM
# [18] = second compound 0.316 µM, first compound 0.1 µM
# [19] = second compound 0.316 µM, first compound 0.316 µM
# [20] = second compound 0.316 µM, first compound 1 µM
# [21] = second compound 1 µM, first compound 0.0316 µM
# [22] = second compound 1 µM, first compound 0.1 µM
# [23] = second compound 1 µM, first compound 0.316 µM
# [24] = second compound 1 µM, first compound 1 µM
# [25] = second compound 0.0316 µM, first compound 0.00316 µM
# [26] = second compound 0.0316 µM, first compound 0.01 µM
# [27] = second compound 0.1 µM, first compound 0.00316 µM
# [28] = second compound 0.1 µM, first compound 0.01 µM
# [29] = second compound 0.316 µM, first compound 0.00316 µM
# [30] = second compound 0.316 µM, first compound 0.01 µM
# [31] = second compound 1 µM, first compound 0.00316 µM
# [32] = second compound 1 µM, first compound 0.01 µM
structure (smiles),measurement,setting,value
CC(C)NCC(C(=O)N1CCN(c2ncnc3c2C(C)CC3O)CC1)c1ccc(Cl)cc1 (stereo unspecified) + CC(Nc1ccc2c(c1)OCCn1cc(N3C(=O)OCC3C(F)F)nc1-2)C(N)=O,IC50,second compound 0.00316 µM,1.29 µM
same,IC50,second compound 0.01 µM,0.759 µM
same,IC50,second compound 0.0316 µM,0.749 µM
same,IC50,second compound 0.1 µM,0.576 µM
same,IC50,second compound 0.316 µM,0.678 µM
same,IC50,second compound 1 µM,0.311 µM
same,"viability, T/C",[1],90.2%
same,"viability, T/C",[2],91.3%
same,"viability, T/C",[3],72.5%
same,"viability, T/C",[4],60.1%
same,"viability, T/C","second compound 0.00316 µM, first compound 3.16 µM",27.5%
same,"viability, T/C","second compound 0.00316 µM, first compound 10 µM",25.5%
same,"viability, T/C",[5],113%
same,"viability, T/C",[6],88%
same,"viability, T/C",[7],67.7%
same,"viability, T/C",[8],45.8%
same,"viability, T/C","second compound 0.01 µM, first compound 3.16 µM",27.8%
same,"viability, T/C","second compound 0.01 µM, first compound 10 µM",23.7%
same,"viability, T/C",[9],88.1%
same,"viability, T/C",[10],85.5%
same,"viability, T/C",[11],65.6%
same,"viability, T/C",[12],45.1%
same,"viability, T/C","second compound 0.0316 µM, first compound 3.16 µM",29.5%
same,"viability, T/C","second compound 0.0316 µM, first compound 10 µM",24.4%
same,"viability, T/C",[13],104%
same,"viability, T/C",[14],83.6%
same,"viability, T/C",[15],57.2%
same,"viability, T/C",[16],45.1%
same,"viability, T/C","second compound 0.1 µM, first compound 3.16 µM",24.3%
same,"viability, T/C","second compound 0.1 µM, first compound 10 µM",21.4%
same,"viability, T/C",[17],89.8%
same,"viability, T/C",[18],81.3%
same,"viability, T/C",[19],65.7%
same,"viability, T/C",[20],42.5%
same,"viability, T/C","second compound 0.316 µM, first compound 3.16 µM",26.4%
same,"viability, T/C","second compound 0.316 µM, first compound 10 µM",22%
same,"viability, T/C",[21],82.5%
same,"viability, T/C",[22],65.3%
same,"viability, T/C",[23],50.1%
same,"viability, T/C",[24],37%
same,"viability, T/C","second compound 1 µM, first compound 3.16 µM",26.2%
same,"viability, T/C","second compound 1 µM, first compound 10 µM",21.2%
CCN1CCN(Cc2ccc(Nc3ncc(F)c(-c4cc(F)c5nc(C)n(C(C)C)c5c4)n3)nc2)CC1 + CC(Nc1ncnc2nc[nH]c12)c1cc2cccc(Cl)c2c(=O)n1-c1ccccc1,IC50,second compound 0.0316 µM,> 1 µM
same,IC50,second compound 0.1 µM,> 1 µM
same,IC50,second compound 0.316 µM,> 1 µM
same,IC50,second compound 1 µM,> 1 µM
same,IC50,second compound 3.16 µM,> 1 µM
same,IC50,second compound 10 µM,< 0.00316 µM
same,"viability, T/C",[25],98.7%
same,"viability, T/C",[26],89.8%
same,"viability, T/C",[9],88.1%
same,"viability, T/C",[10],88.1%
same,"viability, T/C",[11],85.3%
same,"viability, T/C",[12],67.9%
same,"viability, T/C",[27],85.3%
same,"viability, T/C",[28],92.7%
same,"viability, T/C",[13],94.1%
same,"viability, T/C",[14],93.7%
same,"viability, T/C",[15],79.3%
same,"viability, T/C",[16],60.1%
same,"viability, T/C",[29],78.3%
same,"viability, T/C",[30],81.1%
same,"viability, T/C",[17],82.3%
same,"viability, T/C",[18],65.5%
same,"viability, T/C",[19],81%
same,"viability, T/C",[20],56.6%
same,"viability, T/C",[31],58.2%
same,"viability, T/C",[32],70%
same,"viability, T/C",[21],69.5%
same,"viability, T/C",[22],61.7%
same,"viability, T/C",[23],56.9%
same,"viability, T/C",[24],51.5%
same,"viability, T/C","second compound 3.16 µM, first compound 0.00316 µM",60.9%
same,"viability, T/C","second compound 3.16 µM, first compound 0.01 µM",57.4%
same,"viability, T/C","second compound 3.16 µM, first compound 0.0316 µM",57.9%
same,"viability, T/C","second compound 3.16 µM, first compound 0.1 µM",53.7%
same,"viability, T/C","second compound 3.16 µM, first compound 0.316 µM",55.1%
same,"viability, T/C","second compound 3.16 µM, first compound 1 µM",48.1%
same,"viability, T/C","second compound 10 µM, first compound 0.00316 µM",40.9%
same,"viability, T/C","second compound 10 µM, first compound 0.01 µM",42.4%
same,"viability, T/C","second compound 10 µM, first compound 0.0316 µM",41%
same,"viability, T/C","second compound 10 µM, first compound 0.1 µM",40%
same,"viability, T/C","second compound 10 µM, first compound 0.316 µM",37.8%
same,"viability, T/C","second compound 10 µM, first compound 1 µM",31.8%
CCN1CCN(Cc2ccc(Nc3ncc(F)c(-c4cc(F)c5nc(C)n(C(C)C)c5c4)n3)nc2)CC1 + COc1c(OCCCN2CCOCC2)ccc2c3n(c(=NC(=O)c4cnc(N)nc4)nc12)CCN3,IC50,second compound 0.00316 µM,> 1 µM
same,IC50,second compound 0.01 µM,> 1 µM
same,IC50,second compound 0.0316 µM,> 1 µM
same,IC50,second compound 0.1 µM,> 1 µM
same,IC50,second compound 0.316 µM,< 0.00316 µM
same,IC50,second compound 1 µM,< 0.00316 µM
same,"viability, T/C","second compound 0.00316 µM, first compound 0.00316 µM",96.9%
same,"viability, T/C","second compound 0.00316 µM, first compound 0.01 µM",90.8%
same,"viability, T/C",[1],88.2%
same,"viability, T/C",[2],96.8%
same,"viability, T/C",[3],99.5%
same,"viability, T/C",[4],69.9%
same,"viability, T/C","second compound 0.01 µM, first compound 0.00316 µM",85.3%
same,"viability, T/C","second compound 0.01 µM, first compound 0.01 µM",88.8%
same,"viability, T/C",[5],82%
same,"viability, T/C",[6],88.8%
same,"viability, T/C",[7],84.2%
same,"viability, T/C",[8],54.4%
same,"viability, T/C",[25],77%
same,"viability, T/C",[26],72.2%
same,"viability, T/C",[9],77.5%
same,"viability, T/C",[10],73.6%
same,"viability, T/C",[11],81.4%
same,"viability, T/C",[12],66.1%
same,"viability, T/C",[27],56.6%
same,"viability, T/C",[28],72.4%
same,"viability, T/C",[13],61.9%
same,"viability, T/C",[14],59%
same,"viability, T/C",[15],64%
same,"viability, T/C",[16],40.3%
same,"viability, T/C",[29],26.9%
same,"viability, T/C",[30],25.1%
same,"viability, T/C",[17],28.1%
same,"viability, T/C",[18],29.9%
same,"viability, T/C",[19],31.7%
same,"viability, T/C",[20],24.4%
same,"viability, T/C",[31],4.09%
same,"viability, T/C",[32],4.14%
same,"viability, T/C",[21],2.96%
same,"viability, T/C",[22],4.33%
same,"viability, T/C",[23],6.64%
same,"viability, T/C",[24],9.9%
